{"source": "patent US11707500B2", "about": "“Growth promoting peptides, and uses thereof” (NURITAS LIMITED, priority 2015, dated 2023)", "data": [{"system": "Human Dermal Fibroblasts (HDF)", "experiment": "BrdU cell proliferation assay", "format": "cell-based", "details": "text on FIGS. 1-100; incubated with synthetic peptide 24 h; vs untreated control", "units": {"increase in HDF cell proliferation": "%"}, "values": [{"substance": "ASSNLDLLGFG [SEQ ID NO: 73]", "increase in HDF cell proliferation": 16}, {"substance": "DDEEEEQGEEEINK [SEQ ID NO: 85]", "increase in HDF cell proliferation": 35}, {"substance": "DEEEEQGEEEINK [SEQ ID NO: 74]", "increase in HDF cell proliferation": 29}, {"substance": "DSINALEPDHR [SEQ ID NO: 474]", "increase in HDF cell proliferation": 121}, {"substance": "EDDEEEEQGEEEINK [SEQ ID NO: 84]", "increase in HDF cell proliferation": 20}, {"substance": "EEGYYGEQQQQPGMTR [SEQ ID NO: 249]", "increase in HDF cell proliferation": 30}, {"substance": "EGYYGEQQQQPGMTR [SEQ ID NO: 247]", "increase in HDF cell proliferation": 28}, {"substance": "EVEERSQNIF [SEQ ID NO: 341]", "increase in HDF cell proliferation": 83}, {"substance": "FHMPP [SEQ ID NO: 455]", "increase in HDF cell proliferation": 47}, {"substance": "FWM (FWMA) [SEQ ID NO: 457]", "increase in HDF cell proliferation": 114}, {"substance": "GAFTPLQYK [SEQ ID NO: 365]", "increase in HDF cell proliferation": 58}, {"substance": "GAFTPLQYKSYQD [SEQ ID NO: 359]", "increase in HDF cell proliferation": 15}, {"substance": "GALMLPHYN [SEQ ID NO: 504]", "increase in HDF cell proliferation": 119}, {"substance": "GALMLPHYNSR [SEQ ID NO: 505]", "increase in HDF cell proliferation": 118}, {"substance": "GYYGEQQQQPGMTR [SEQ ID NO: 248]", "increase in HDF cell proliferation": 86}, {"substance": "HMPSS [SEQ ID NO: 460]", "increase in HDF cell proliferation": 38}, {"substance": "HPMS [SEQ ID NO: 495]", "increase in HDF cell proliferation": 68}, {"substance": "HPRPPKPDAPR [SEQ ID NO: 452]", "increase in HDF cell proliferation": 76}, {"substance": "HRFR [SEQ ID NO: 461]", "increase in HDF cell proliferation": 85}, {"substance": "HRRS [SEQ ID NO: 462]", "increase in HDF cell proliferation": 15}, {"substance": "HSPR [SEQ ID NO: 463]", "increase in HDF cell proliferation": 100}, {"substance": "HWF (HWFA) [SEQ ID NO: 464]", "increase in HDF cell proliferation": 18}, {"substance": "IDGYDTPVEGR [SEQ ID NO: 222]", "increase in HDF cell proliferation": 110}, {"substance": "IEKILLEE [SEQ ID NO: 337]", "increase in HDF cell proliferation": 8}, {"substance": "IFEDAITIPGR [SEQ ID NO: 477]", "increase in HDF cell proliferation": 81}, {"substance": "ITASSNLNLLGFG [SEQ ID NO: 93]", "increase in HDF cell proliferation": 26}, {"substance": "IYGPDTGVDYKDNQMR [SEQ ID NO: 226]", "increase in HDF cell proliferation": 30}, {"substance": "KTLDYWPSLR [SEQ ID NO: 479]", "increase in HDF cell proliferation": 106}, {"substance": "LDALEPDNRIESE [SEQ ID NO: 478]", "increase in HDF cell proliferation": 76}, {"substance": "LEPDNR [SEQ ID NO: 485]", "increase in HDF cell proliferation": 81}, {"substance": "LGAPDVGHPM [SEQ ID NO: 403]", "increase in HDF cell proliferation": 51}, {"substance": "LQQAPPPPQR [SEQ ID NO: 453]", "increase in HDF cell proliferation": 25}, {"substance": "LRGFSK [SEQ ID NO: 501]", "increase in HDF cell proliferation": 43}, {"substance": "LVIPVNGPGK [SEQ ID NO: 121]", "increase in HDF cell proliferation": 48}, {"substance": "LVIPVNGPGKF [SEQ ID NO: 105]", "increase in HDF cell proliferation": 40}, {"substance": "LVIPVNGPGKFE [SEQ ID NO: 97]", "increase in HDF cell proliferation": 26}, {"substance": "LVIPVNGPGKFEA [SEQ ID NO: 98]", "increase in HDF cell proliferation": 49}, {"substance": "LVSHPIAAHEGR [SEQ ID NO: 482]", "increase in HDF cell proliferation": 113}, {"substance": "MFRR [SEQ ID NO: 465]", "increase in HDF cell proliferation": 96}, {"substance": "MPMP [SEQ ID NO: 497]", "increase in HDF cell proliferation": 58}, {"substance": "MPPS [SEQ ID NO: 467]", "increase in HDF cell proliferation": 90}, {"substance": "MPRR [SEQ ID NO: 468]", "increase in HDF cell proliferation": 82}, {"substance": "NGVLRPGQL [SEQ ID NO: 272]", "increase in HDF cell proliferation": 97}, {"substance": "NYDEGSEPRVPAQRE [SEQ ID NO: 158]", "increase in HDF cell proliferation": 21}, {"substance": "PHMP [SEQ ID NO: 470]", "increase in HDF cell proliferation": 119}, {"substance": "PHMPS [SEQ ID NO: 471]", "increase in HDF cell proliferation": 38}, {"substance": "PNSM [SEQ ID NO: 499]", "increase in HDF cell proliferation": 113}, {"substance": "PRRF [SEQ ID NO: 472]", "increase in HDF cell proliferation": 77}, {"substance": "RHGEWGPSY [SEQ ID NO: 480]", "increase in HDF cell proliferation": 102}, {"substance": "RHGEWRPSY [SEQ ID NO: 146]", "increase in HDF cell proliferation": 80}, {"substance": "RSQNIF [SEQ ID NO: 502]", "increase in HDF cell proliferation": 68}, {"substance": "SEEGYYGEQQQQPGMTR [SEQ ID NO: 253]", "increase in HDF cell proliferation": 112}]}]}
